In ChEMBL document CHEMBL6127061, “Discovery of orally bioavailable ALK PROTACs based ceritinib against ALK positive cancers” (Eur J Med Chem, 2024):

Assays:
[1] = human, plasma, 1 h
Description: Metabolic stability in human plasma measured upto 60 mins in presence of NADPH by LC-MS/MS analysis

[2] = microsomes, 1 h, 1.5 µM
Description: Metabolic stability in liver microsomes (unknown origin) at 1.5 uM measured upto 60 mins in presence of NADPH by LC-MS/MS analysis

[3] = Tmax in ICR mouse at 1 mg/kg, iv measured upto 24 hrs by LC-MS/MS analysis; format: ADME, organism-based; settings: in vivo
[4] = AUCinfinity in ICR mouse at 1 mg/kg, iv measured upto 24 hrs by LC-MS/MS analysis; format: ADME, organism-based; settings: in vivo
[5] = MRTinfinity in ICR mouse at 1 mg/kg, iv measured upto 24 hrs by LC-MS/MS analysis; format: ADME, organism-based; settings: in vivo
[6] = Drug concentration in ICR mouse at 10 mmg/kg, po measured after 0.5 to 24 hrs; format: ADME, organism-based; settings: in vivo, 10 mg/kg, time 0.5-24 hrs
[7] = Half life in ICR mouse at 10 mg/kg, po measured upto 24 hrs by LC-MS/MS analysis; format: ADME, organism-based; settings: in vivo
[8] = MRT(0 to t) in ICR mouse at 10 mg/kg, po measured upto 24 hrs by LC-MS/MS analysis; format: ADME, organism-based; settings: in vivo
[9] = Cmax in ICR mouse at 1 mg/kg, iv measured upto 24 hrs by LC-MS/MS analysis; format: ADME, organism-based; settings: in vivo
[10] = Half life in ICR mouse at 1 mg/kg, iv measured upto 24 hrs by LC-MS/MS analysis; format: ADME, organism-based; settings: in vivo
[11] = Oral bioavailability in ICR mouse at 10 mg/kg measured upto 24 hrs by LC-MS/MS analysis; format: ADME, organism-based; settings: in vivo
[12] = Tmax in ICR mouse at 10 mg/kg, po measured upto 24 hrs by LC-MS/MS analysis; format: ADME, organism-based; settings: in vivo
[13] = AUC(0 to 24 hrs) in ICR mouse at 1 mg/kg, iv measured upto 24 hrs by LC-MS/MS analysis; format: ADME, organism-based; settings: in vivo
[14] = MRT(0 to t) in ICR mouse at 1 mg/kg, iv measured upto 24 hrs by LC-MS/MS analysis; format: ADME, organism-based; settings: in vivo
[15] = Cmax in ICR mouse at 10 mg/kg, po measured upto 24 hrs by LC-MS/MS analysis; format: ADME, organism-based; settings: in vivo
[16] = MRTinfinity in ICR mouse at 10 mg/kg, po measured upto 24 hrs by LC-MS/MS analysis; format: ADME, organism-based; settings: in vivo
[17] = AUC(0 to 24 hrs) in ICR mouse at 10 mg/kg, po measured upto 24 hrs by LC-MS/MS analysis; format: ADME, organism-based; settings: in vivo
[18] = AUCinfinity in ICR mouse at 10 mg/kg, po measured upto 24 hrs by LC-MS/MS analysis; format: ADME, organism-based; settings: in vivo

SMILES | Stability [1] | Stability [2] | Tmax [3] [min] | AUC(0-inf) [4] [ng·h/mL] | MRT inf [5] [h] | Drug uptake [6] [ng/mL] | half-life [7] [h] | MRT last at 24 h [8] [h] | Cmax [9] [ng/mL] | half-life [10] [h] | bioavailability [11] [%] | Tmax [12] [h] | AUC(0-t) at 24 h [13] [ng·h/mL] | MRT last at 24 h [14] [h] | Cmax [15] [ng/mL] | MRT inf [16] [h] | AUC(0-t) at 24 h [17] [ng·h/mL] | AUC(0-inf) [18] [ng·h/mL]
Cc1cc(Nc2ncc(Cl)c(Nc3ccccc3S(=O)(=O)C(C)C)n2)c(OC(C)C)cc1C1CCN(C2CCN(C3CN(c4ccc5c(c4)C(=O)N(C4CCC(=O)NC4=O)C5=O)C3)CC2)CC1 (stereo not given) | Stable | Stable | – | – | – | – | – | – | – | – | – | – | – | – | – | – | – | –
Cc1cc(Nc2ncc(Cl)c(Nc3ccccc3S(=O)(=O)C(C)C)n2)c(OC(C)C)cc1C1CCN(C2CN(C3CCN(c4ccc5c(c4)C(=O)N(C4CCC(=O)NC4=O)C5=O)CC3)C2)CC1 (stereo not given) | Stable | Stable | 4.98 | 21700 | 13.2 | 400 | 11.2 | 8.61 | 3000 | 10.8 | 14.2 | 4 | 17600 | 7.19 | 1710 | 15.7 | 23900 | 30800
